Laboratory results published in article doi:10.1101/2024.09.20.614104v2, “SATAY-Based Chemogenomic Screening uncovers Antifungal Resistance Mechanisms and Key Determinants of ATI-2307 and Chitosan Sensitivity” (biorxiv, 2024).

What was measured:
Hol1 = target: T1, Hol1 (Saccharomyces cerevisiae, UniProt P53389); assay: LC-MS quantification of cellular uptake, wild-type versus hol1 deletion cells; type: cell-based; settings: SC 2% ethanol, 30 °C, not an affinity constant
T1 construct: full-length native plasma membrane polyamine transporter in wild-type yeast; hol1 deletion strain as control
T1 sequence (P53389 whole entry): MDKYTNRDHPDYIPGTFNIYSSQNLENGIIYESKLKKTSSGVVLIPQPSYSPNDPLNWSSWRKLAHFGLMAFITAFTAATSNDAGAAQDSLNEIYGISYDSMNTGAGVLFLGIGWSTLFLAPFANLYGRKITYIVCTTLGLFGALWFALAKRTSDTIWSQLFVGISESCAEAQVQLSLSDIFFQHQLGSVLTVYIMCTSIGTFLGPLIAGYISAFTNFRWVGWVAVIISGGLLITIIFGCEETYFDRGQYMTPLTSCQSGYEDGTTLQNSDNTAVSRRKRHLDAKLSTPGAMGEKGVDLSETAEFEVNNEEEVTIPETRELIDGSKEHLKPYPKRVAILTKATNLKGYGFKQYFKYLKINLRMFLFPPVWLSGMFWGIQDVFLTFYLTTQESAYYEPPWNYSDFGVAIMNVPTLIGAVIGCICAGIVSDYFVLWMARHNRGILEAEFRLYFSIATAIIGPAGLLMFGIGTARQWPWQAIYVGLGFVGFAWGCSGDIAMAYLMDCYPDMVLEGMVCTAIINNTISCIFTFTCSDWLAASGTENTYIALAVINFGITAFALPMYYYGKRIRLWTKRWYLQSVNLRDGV

CaHOL1 = target: T2, CaHOL1 (Candida albicans, UniProt Q5AP74); assay: LC-MS quantification of cellular uptake, hol1 deletion cells with or without CaHOL1 plasmid; type: cell-based; settings: 0.003 μg/mL ATI-2307, 2 h, SC -URA 2% ethanol, 30 °C
T2 construct: gene HOL1; full-length CDS PCR-amplified from genomic DNA, expressed from plasmid pBK994 in S. cerevisiae hol1 deletion strain
T2 sequence (Q5AP74 entry or part of it): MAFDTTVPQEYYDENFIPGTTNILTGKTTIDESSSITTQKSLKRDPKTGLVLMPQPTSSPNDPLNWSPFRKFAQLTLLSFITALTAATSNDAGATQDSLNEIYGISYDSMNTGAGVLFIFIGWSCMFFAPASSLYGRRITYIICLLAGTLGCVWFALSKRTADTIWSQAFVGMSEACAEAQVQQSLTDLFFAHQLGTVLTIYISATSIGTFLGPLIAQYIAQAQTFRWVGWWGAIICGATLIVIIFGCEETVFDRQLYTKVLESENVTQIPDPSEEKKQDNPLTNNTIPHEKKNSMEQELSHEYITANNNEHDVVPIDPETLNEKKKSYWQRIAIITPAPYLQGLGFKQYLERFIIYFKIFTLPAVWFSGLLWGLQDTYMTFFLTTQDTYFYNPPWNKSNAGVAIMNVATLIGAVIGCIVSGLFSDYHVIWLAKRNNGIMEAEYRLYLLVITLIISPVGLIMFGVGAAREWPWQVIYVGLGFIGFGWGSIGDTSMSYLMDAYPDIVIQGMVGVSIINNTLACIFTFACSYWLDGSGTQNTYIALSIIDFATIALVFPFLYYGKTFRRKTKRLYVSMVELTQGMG

SMILES	uptake, μg per gram of WT pellet (Hol1; 1 μg/mL Iminoctadine, 2 h) [μg/g pellet]	uptake, μg per gram of WT pellet (Hol1; 0.003 μg/mL ATI-2307, 2 h) [μg/g pellet]	LC-MS quantification of cellular uptake, hol1 deletion cells with or without CaH (CaHOL1)
N=C(N)NCCCCCCCCNCCCCCCCCNC(=N)N [Iminoctadine]	52.5	–	–
N=C(N)c1ccc(OCCCC2CCN(CCCOc3ccc(C(=N)N)cc3)CC2)cc1 [ATI-2307]	–	0.1	heterologous expression of C. albicans HOL1 (CaHOL1) partially restored ATI-2307 uptake
